From patent publication US11820787B2, “Benfotiamine derivatives in the treatment of alzheimer's disease” (SHANGHAI RAISING PHARMACEUTICAL CO., LTD., priority 2019, dated 2023) come the findings set out here.

In one assay the test system is Aβ42. Nature of the assay: Aβ42 content in culture supernatant of HEK293APP/sw overexpression cells (ELISA, adjusted to total protein). The assay is classed as cell-based. Conditions: for Aβ42 content: secreted by APP/293 (HEK293APP/sw) cells, 400 μM, treated for 24 h, blank control 11.08. As to the method: (§1) (1) BCA protein concentration assay kit is purchased from Beyotime, Aβ40 and AB42 test kits are purchased from Wako Company. Except the fetal bovine serum (FBS) is purchased from Shanghai Pulong Biotechnology Research and Development Co. Ltd., the other related reagents are purchased from Gibico Company.
(§2) (2) HEK293APP/sw overexpression cell culture: cells are cultured in 48 microwell plate with DMEM culture solution (including 10% FBS, 100 μg/mL G418 (Geneticin) and penicillin and streptomycin), and a 4 mM stock in DMEM is diluted with DMEM to 400 μM and added to cell culture medium by 500 μL/well at 70% cell density and treated for 24 h.
(§3) (3) After the supernatant of culture solution is added to the BCA reagent at room temperature for 30 minutes, the absorption value of each well is measured at the OD 570 nm by the microplate reader and the total protein concentration is calculated according to the protein standard curve. Meanwhile, the concentration of Aβ40 and Aβ42 in the supernatant of culture solution is measured. Briefly, the supernatant is added to the 96 microwell plate coated by primary antibodies and incubated at 4° C. for overnight. Then the solution in the 96 microwell plate is removed and washed, and HRP (horseradish oxide enzyme) marked antibody is added to the solution and incubated at 4° C. for 2 hours. The antibody is removed and the plate is washed. After TMB substrate is added to each well at room temperature for 30 minutes, and the stop buffer is added to each well. The absorption value of each well is measured at the OD 450 nm by the microplate reader and the concentrations of Aβ40 and Aβ42 are calculated according to the standard curves of Aβ40 and Aβ42 respectively, and the final concentration is obtained by adjusting the concentrations of Aβ40 and Aβ42 according to the total protein concentration.
On the technique in general: In an ELISA, binding on a coated surface is turned into a signal by an enzyme label.

The test system of another assay is Aβ40. Nature of the assay: Aβ40 content in culture supernatant of HEK293APP/sw overexpression cells (ELISA, adjusted to total protein). The assay is classed as cell-based. As to conditions: for Aβ40 content: secreted by APP/293 (HEK293APP/sw) cells, 400 μM, treated for 24 h, blank control 127.81. As to the method: as §1, §2, §3

`C/C(=C(\CCOP(=O)(O)O)SC(=O)c1cccc([N+](=O)[O-])c1)N(C=O)Cc1cnc(C)nc1N` [Example 6, (Z)-S-(2-(N-((4-amino-2-methylpyrimidin-5-yl)methyl)formamido)-5-(phosphonooxy)pent-2-en-3-yl)3-nitrobenzothioate] came in with an Aβ42 content in the assay on Aβ42 of 3.31 pmol/L. The compound also had an Aβ40 content in the assay on Aβ40 of 81.05 pmol/L.

In turn, “(Z)-S-(2-(N-((4-amino-2-methylpyrimidin-5-yl)methyl)formamido)-5-(phosphonooxy)pent-2-en-3-yl)2-iodobenzothioate [Example 19]” had an Aβ42 content in the assay on Aβ42 of 5.50 pmol/L. In addition, the Aβ40 content in the assay on Aβ40 was 62.74 pmol/L.

In the assay on Aβ42, `C/C(=C(\CCOP(=O)(O)O)SC(=O)c1ccc(O)cc1)N(C=O)Cc1cnc(C)nc1N` [Example 3, (Z)-S-(2-(N-((4-amino-2-methylpyrimidin-5-yl)methyl)formamido)-5-(phosphonooxy)pent-2-en-3-yl)4-hydroxybenzothioate] came in with an Aβ42 content of 10.79 pmol/L. This compound also had an Aβ40 content with Aβ40 of 121.48 pmol/L.

In the assay with Aβ40, `C/C(=C(\CCOP(=O)(O)O)SC(=O)c1ccccc1F)N(C=O)Cc1cnc(C)nc1N` [Example 9, (Z)-S-(2-(N-((4-amino-2-methylpyrimidin-5-yl)methyl)formamido)-5-(phosphonooxy)pent-2-en-3-yl)2-fluorobenzothioate] came in with an Aβ40 content of 15.00 pmol/L.

In the assay on Aβ42, `CCOc1ccccc1C(=O)S/C(CCOP(=O)(O)O)=C(/C)N(C=O)Cc1cnc(C)nc1N` [Example 16] returned an Aβ42 content of 5.93 pmol/L. For the same compound, the Aβ40 content in the assay with Aβ40 was 42.76 pmol/L.

Regarding `C/C(=C(\CCOP(=O)(O)O)SC(=O)c1ccc(Cl)cc1)N(C=O)Cc1cnc(C)nc1N` [Example 15, (Z)-S-(2-(N-((4-amino-2-methylpyrimidin-5-yl)methyl)formamido)-5-(phosphonooxy)pent-2-en-3-yl)4-chlorobenzothioate], in the assay with Aβ42, the Aβ42 content is reported as 7.16 pmol/L. In the assay with Aβ40, this compound came in with an Aβ40 content of 60.27 pmol/L.

`C/C(=C(\CCOP(=O)(O)O)SC(=O)c1cccc(C)c1)N(C=O)Cc1cnc(C)nc1N` [Example 14, (Z)-S-(2-(N-((4-amino-2-methylpyrimidin-5-yl)methyl)formamido)-5-(phosphonooxy)pent-2-en-3-yl)3-methylbenzothioate]: the Aβ42 content in the assay on Aβ42 was found to be 6.41 pmol/L. The compound further showed an Aβ40 content in the assay on Aβ40 of 97.97 pmol/L.

`C/C(=C(\CCOP(=O)(O)O)SC(=O)c1ccc(F)cc1)N(C=O)Cc1cnc(C)nc1N` [Example 7, (Z)-S-(2-(N-((4-amino-2-methylpyrimidin-5-yl)methyl)formamido)-5-(phosphonooxy)pent-2-en-3-yl)4-fluorobenzothioate]: the Aβ42 content in the assay with Aβ42 was 13.08 pmol/L. In the assay with Aβ40, the Aβ40 content turned out to be 152.06 pmol/L.

For `C/C(=C(\CCOP(=O)(O)O)SC(=O)c1ccccc1[N+](=O)[O-])N(C=O)Cc1cnc(C)nc1N` [Example 22, (Z)-S-(2-(N-((4-amino-2-methylpyrimidin-5-yl)methyl)formamido)-5-(phosphonooxy)pent-2-en-3-yl)2-nitrobenzothioate], the Aβ42 content in the assay with Aβ42 is reported as 11.31 pmol/L. The same compound had an Aβ40 content in the assay with Aβ40 of 127.81 pmol/L.

On to `COc1ccc(C(=O)S/C(CCOP(=O)(O)O)=C(/C)N(C=O)Cc2cnc(C)nc2N)cc1` [Example 12, (Z)-S-(2-(N-((4-amino-2-methylpyrimidin-5-yl)methyl)formamido)-5-(phosphonooxy)pent-2-en-3-yl)4-methoxybenzothioate], for which the Aβ42 content with Aβ42 turned out to be 3.92 pmol/L. In addition, the Aβ40 content in the assay on Aβ40 was 41.60 pmol/L.

`COc1cccc(C(=O)S/C(CCOP(=O)(O)O)=C(/C)N(C=O)Cc2cnc(C)nc2N)c1` [Example 1, (Z)-S-(2-(N-((4-amino-2-methylpyrimidin-5-yl)methyl)formamido)-5-(phosphonooxy)pent-2-en-3-yl)3-methoxybenzothioate]: the Aβ42 content in the assay on Aβ42 is given as 12.14 pmol/L. In the assay on Aβ40, this compound registered an Aβ40 content of 135.09 pmol/L.

In the assay on Aβ42, `C=Cc1cccc(C(=O)S/C(CCOP(=O)(O)O)=C(/C)N(C=O)Cc2cnc(C)nc2N)c1` [Example 20, (Z)-S-(2-(N-((4-amino-2-methylpyrimidin-5-yl)methyl)formamido)-5-(phosphonooxy)pent-2-en-3-yl)3-vinylbenzothioate] showed an Aβ42 content of 10.33 pmol/L. In the assay with Aβ40, the Aβ40 content was 117.16 pmol/L.

Take `C/C(=C(\CCOP(=O)(O)O)SC(=O)c1cccc(F)c1)N(C=O)Cc1cnc(C)nc1N` [Example 8, (Z)-S-(2-(N-((4-amino-2-methylpyrimidin-5-yl)methyl)formamido)-5-(phosphonooxy)pent-2-en-3-yl)3-fluorobenzothioate]: the Aβ42 content in the assay on Aβ42 is 8.35 pmol/L. The Aβ40 content with Aβ40 was 87.33 pmol/L.

In the assay on Aβ42, `CCOc1ccc(C(=O)S/C(CCOP(=O)(O)O)=C(/C)N(C=O)Cc2cnc(C)nc2N)cc1` [Example 2, (Z)-S-(2-(N-((4-amino-2-methylpyrimidin-5-yl)methyl)formamido)-5-(phosphonooxy)pent-2-en-3-yl)4-ethoxybenzothioate] returned an Aβ42 content of 7.19 pmol/L. Besides, the Aβ40 content in the assay with Aβ40 is 93.07 pmol/L.

For `C/C(=C(\CCOP(=O)(O)O)SC(=O)c1cccc(Br)c1)N(C=O)Cc1cnc(C)nc1N` [Example 5, (Z)-S-(2-(N-((4-amino-2-methylpyrimidin-5-yl)methyl)formamido)-5-(phosphonooxy)pent-2-en-3-yl)3-bromobenzothioate], the Aβ42 content with Aβ42 was found to be 6.77 pmol/L. The compound further returned an Aβ40 content with Aβ40 of 25.65 pmol/L.

Compound `C=Cc1ccc(C(=O)S/C(CCOP(=O)(O)O)=C(/C)N(C=O)Cc2cnc(C)nc2N)cc1` [Example 21, (Z)-S-(2-(N-((4-amino-2-methylpyrimidin-5-yl)methyl)formamido)-5-(phosphonooxy)pent-2-en-3-yl)4-vinylbenzothioate] registered an Aβ42 content in the assay on Aβ42 of 11.24 pmol/L. The Aβ40 content with Aβ40 is reported as 127.41 pmol/L.

In the assay on Aβ42, `C/C(=C(\CCOP(=O)(O)O)SC(=O)c1ccc(Br)cc1)N(C=O)Cc1cnc(C)nc1N` [Example 17, (Z)-S-(2-(N-((4-amino-2-methylpyrimidin-5-yl)methyl)formamido)-5-(phosphonooxy)pent-2-en-3-yl)4-bromobenzothioate] came in with an Aβ42 content of 8.89 pmol/L. Besides, the Aβ40 content in the assay on Aβ40 came to 112.53 pmol/L.

Turning to `C/C(=C(\CCOP(=O)(O)O)SC(=O)c1ccccc1)N(C=O)Cc1cnc(C)nc1N` [Comparative Example 2, S-[2-[[(4-amino-2-methyl-5-pyrimidinyl)methyl]formylamino]-1-[2-(phosphonooxy)ethyl]-1-propenyl]ester, reference compound], in the assay with Aβ42 (APP/293 cells, in words), the “effect on the generation of Aβ42 peptides compared with blank control” value is “good effect on reducing the generation”. The Aβ42 content in the assay with Aβ42 was 5.04 pmol/L. Besides, the “effect on the generation of Aβ40 peptides compared with blank control” value in the assay on Aβ40 (APP/293 cells, in words) was “good effect on reducing the generation”. For the same compound, in the assay with Aβ40, the Aβ40 content worked out at 53.77 pmol/L.

`C/C(=C(\CCOP(=O)(O)O)SC(=O)c1ccc([N+](=O)[O-])cc1)N(C=O)Cc1cnc(C)nc1N` [Example 11, (Z)-S-(2-(N-((4-amino-2-methylpyrimidin-5-yl)methyl)formamido)-5-(phosphonooxy)pent-2-en-3-yl)4-nitrobenzothioate] registered an Aβ42 content in the assay with Aβ42 of 5.21 pmol/L. Besides, the Aβ40 content in the assay on Aβ40 came to 60.98 pmol/L.
